The source of these data is patent publication US12678464B2, “Methods for stem cell transplantation” (The UAB Research Foundation, priority 2015, dated 2026).

One series is described as follows: clinical. The following applies: human, in vivo, intravenous, 50 mg/kg.
Series [1] relates to haploidentical HCT. To be noted: CTN 0603; cited from earlier work.
The test system of series [2] is haploidentical HCT. To be noted: at 1 year; cited from earlier work.
For series [3] the following is noted: LexiComp monograph; cited from earlier work.
The conditions of series [4]: constituted, cited from earlier work.
For series [5] the following is noted: cited from earlier work.
The conditions of series [6]: 1-octanol/water (pH 7.4) buffer solution; cited from earlier work.
The conditions of series [7]: cited from earlier work. The source holds these as a separate data set.

In brackets after ≈: the same amount, converted by molar mass. Where two headings read alike, the source gives them in different places.

A word on the half-life: it is the time needed for the level to fall by half in the phase considered. The compound `O=P1(N(CCCl)CCCl)NCCCO1` (stereo not shown) [Cyclophosphamide, 2-[bis(2-cholorethyl)amino]tetrahydro-2H-1,3,2-oxazaphosphorine 2-oxide monohydrate] gave a half-life in “clinical” of 60 h. Further, the relapse rate is on record as 45% in the series on haploidentical HCT [1] and 51% with haploidentical HCT [2]. Moreover, in series [3], the elimination half-life is 3 to 12 h. Moreover, the “physically and chemically stable” value in series [4] (refrigerated) was “six”; in series [4] (room temperature), 24 h.
Usually pKa stands for the pH at which an ionisable group is half protonated. As for `COc1c(C)c2c(c(O)c1C/C=C(\C)CCC(=O)OCCN1CCOCC1)C(=O)OC2` [Mycophenolate mofetil, 2-morpholinoethyl (E)-6-(1,3-dihydro-4-hydroxy-6-methoxy-7-methyl-3-oxo-5-isobenzofuranyl)-4-methyl-4-hexenoate], the pKa is 5.6 in series [5] (morpholino group) and 8.5 in series [5] (phenolic group). In series [6], the apparent partition coefficient is on record as 238. Further, the solubility in acetone result in series [7] (acetone, in words) was “freely soluble”. Moreover, in series [7] (in words), the solubility in ethanol entry is listed as “sparingly soluble”. Further, in series [7] (in words), the solubility in methanol result is listed as “soluble”. In addition, the “solubility in an acidic medium” value in series [7] (pH 3.6) was 4270 µg/mL (≈ 9.85 mM). The solubility in water in series [7] (pH 7.4) was 43 µg/mL (≈ 0.0992 mM); in series [7] (water, in words) it was “slightly soluble”.
Consider `C=CC[C@@H]1/C=C(\C)C[C@H](C)C[C@H](OC)[C@H]2O[C@@](O)(C(=O)C(=O)N3CCCC[C@H]3C(=O)O[C@H](/C(C)=C/[C@@H]3CC[C@@H](O)[C@H](OC)C3)[C@H](C)[C@@H](O)CC1=O)[C@H](C)C[C@@H]2OC` [Tacrolimus], for which the solubility in chloroform result in series [7] (chloroform, in words) is “very soluble”. Moreover, in series [7] (in words), the solubility in ethanol entry is given as “freely soluble” and the solubility in methanol entry is reported as “very soluble”. Besides, the solubility in water entry in series [7] (water, in words) is “practically insoluble”.
